The results in this text go back to ChEMBL document CHEMBL5715954, “Silencing c-Myc translation as a therapeutic strategy through targeting PI3Kδ and CK1ε in hematological malignancies” (Blood, 2017).

What all share (design): scale not given: the % may be the effect or the level left
The target of assay [1] is STE20/SPS1-related proline-alanine-rich protein kinase (Homo sapiens) (UniProt Q9UEW8). The experiment in a line: Inhibition of human STK39 assessed as enzyme activity at 1 uM using myelin basic protein as substrate preincubated for 20 mins followed by [gamma-33P]-ATP addition and measured after 120 mins by radiometric Hot-SpotSM Kinase assay relative to control.
The target in assay [2] is Inactive tyrosine-protein kinase PEAK1 (Homo sapiens) (UniProt Q9H792). The experiment in a line: Inhibition of human PEAK1 assessed as enzyme activity at 1 uM using poly[Glu:Tyr] (4:1) as substrate preincubated for 20 mins followed by [gamma-33P]-ATP addition and measured after 120 mins by radiometric Hot-SpotSM Kinase assay relative to control.
Assay [3] addresses Serine/threonine-protein kinase pim-2 (Homo sapiens) (UniProt Q9P1W9). Briefly: Inhibition of human PIM2 assessed as enzyme activity at 1 uM using RSRHSSYPAGT as substrate preincubated for 20 mins followed by [gamma-33P]-ATP addition and measured after 120 mins by radiometric Hot-SpotSM Kinase assay relative to control.
Assay [4] deals with Protein-tyrosine kinase 6 (Homo sapiens) (UniProt Q13882). The experiment in a line: Inhibition of human BRK assessed as enzyme activity at 1 uM using poly[Glu:Tyr] (4:1) as substrate preincubated for 20 mins followed by [gamma-33P]-ATP addition and measured after 120 mins by radiometric Hot-SpotSM Kinase assay relative to control.
Assay [5] concerns the target Non-receptor tyrosine-protein kinase TYK2 (Homo sapiens) (UniProt P29597). Briefly: Inhibition of human TYK2 assessed as enzyme activity at 1 uM using KKSRGDYMTMQIG as substrate preincubated for 20 mins followed by [gamma-33P]-ATP addition and measured after 120 mins by radiometric Hot-SpotSM Kinase assay relative to control.
The target in assay [6] is Ephrin type-A receptor 2 (Homo sapiens) (UniProt P29317). Briefly: Inhibition of human EPHA2 assessed as enzyme activity at 1 uM using poly[Glu:Tyr] (4:1) as substrate preincubated for 20 mins followed by [gamma-33P]-ATP addition and measured after 120 mins by radiometric Hot-SpotSM Kinase assay relative to control.
The target of assay [7] is Protein kinase C alpha type (Homo sapiens) (UniProt P17252). The experiment in a line: Inhibition of human PKCa assessed as enzyme activity at 1 uM using ERMRPRKRQGSVRRRV as substrate preincubated for 20 mins followed by [gamma-33P]-ATP addition and measured after 120 mins by radiometric Hot-SpotSM Kinase assay relative to control.
Assay [8] concerns the target Activin receptor type-1-like (Homo sapiens) (UniProt P37023). Briefly: Inhibition of human ALK1 assessed as enzyme activity at 1 uM using casein as substrate preincubated for 20 mins followed by [gamma-33P]-ATP addition and measured after 120 mins by radiometric Hot-SpotSM Kinase assay relative to control.
For assay [9], the target named is T1, Serine/threonine-protein kinase D3 (Homo sapiens) (UniProt O94806).
T1 sequence (whole entry): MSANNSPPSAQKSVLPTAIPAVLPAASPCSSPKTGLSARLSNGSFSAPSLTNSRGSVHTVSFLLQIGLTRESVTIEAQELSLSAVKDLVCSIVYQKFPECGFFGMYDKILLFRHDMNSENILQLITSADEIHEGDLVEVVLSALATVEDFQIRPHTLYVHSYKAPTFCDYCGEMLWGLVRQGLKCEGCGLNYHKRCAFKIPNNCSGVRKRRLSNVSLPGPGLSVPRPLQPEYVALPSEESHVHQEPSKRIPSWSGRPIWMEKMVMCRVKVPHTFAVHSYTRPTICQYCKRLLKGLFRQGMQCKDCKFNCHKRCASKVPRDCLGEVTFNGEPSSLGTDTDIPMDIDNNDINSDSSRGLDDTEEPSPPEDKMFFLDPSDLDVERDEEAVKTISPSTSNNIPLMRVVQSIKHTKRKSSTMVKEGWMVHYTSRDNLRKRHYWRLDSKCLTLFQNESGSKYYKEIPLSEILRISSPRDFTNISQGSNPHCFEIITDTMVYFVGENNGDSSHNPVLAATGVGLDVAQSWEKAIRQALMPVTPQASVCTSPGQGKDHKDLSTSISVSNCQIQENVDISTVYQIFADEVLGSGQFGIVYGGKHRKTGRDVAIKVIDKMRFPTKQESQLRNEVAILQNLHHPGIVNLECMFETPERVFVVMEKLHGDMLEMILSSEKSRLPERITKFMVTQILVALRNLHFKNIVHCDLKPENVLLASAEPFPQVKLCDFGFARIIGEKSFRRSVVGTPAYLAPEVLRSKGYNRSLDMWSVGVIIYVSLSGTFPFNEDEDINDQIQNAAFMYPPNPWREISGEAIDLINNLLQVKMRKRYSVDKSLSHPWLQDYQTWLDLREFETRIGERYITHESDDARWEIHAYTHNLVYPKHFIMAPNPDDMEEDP
Briefly: Inhibition of human PKCnu assessed as enzyme activity at 1 uM using KKLNRTLSVA as substrate preincubated for 20 mins followed by [gamma-33P]-ATP addition and measured after 120 mins by radiometric Hot-SpotSM Kinase assay relative to control.

Assay [10] concerns the target T2, Mitogen-activated protein kinase kinase kinase 12 (Homo sapiens) (UniProt Q12852).
T2 sequence (whole entry): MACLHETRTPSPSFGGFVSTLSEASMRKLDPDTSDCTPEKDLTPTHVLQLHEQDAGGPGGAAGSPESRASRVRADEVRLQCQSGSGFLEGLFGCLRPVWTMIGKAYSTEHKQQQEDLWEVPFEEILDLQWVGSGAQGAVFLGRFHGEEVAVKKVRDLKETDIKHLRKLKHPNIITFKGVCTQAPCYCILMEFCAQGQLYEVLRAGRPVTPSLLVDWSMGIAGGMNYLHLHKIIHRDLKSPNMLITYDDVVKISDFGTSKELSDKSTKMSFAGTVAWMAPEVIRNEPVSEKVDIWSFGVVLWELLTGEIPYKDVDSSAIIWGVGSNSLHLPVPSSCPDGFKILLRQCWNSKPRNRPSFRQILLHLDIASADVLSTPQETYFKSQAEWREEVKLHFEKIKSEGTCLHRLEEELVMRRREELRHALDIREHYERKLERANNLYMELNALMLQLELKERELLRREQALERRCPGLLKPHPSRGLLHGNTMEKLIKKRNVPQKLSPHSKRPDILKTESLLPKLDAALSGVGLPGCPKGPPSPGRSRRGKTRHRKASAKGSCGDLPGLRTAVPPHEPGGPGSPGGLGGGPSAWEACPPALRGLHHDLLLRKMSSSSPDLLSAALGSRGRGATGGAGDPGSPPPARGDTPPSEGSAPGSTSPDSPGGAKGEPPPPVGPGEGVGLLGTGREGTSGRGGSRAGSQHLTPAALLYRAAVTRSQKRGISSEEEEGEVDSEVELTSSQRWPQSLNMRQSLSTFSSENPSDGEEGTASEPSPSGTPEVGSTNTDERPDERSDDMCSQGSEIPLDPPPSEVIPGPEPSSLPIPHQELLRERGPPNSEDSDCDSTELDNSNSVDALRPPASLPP
The experiment in a line: Inhibition of human DLK/MAP3K12 assessed as enzyme activity at 1 uM using myelin basic protein as substrate preincubated for 20 mins followed by [gamma-33P]-ATP addition and measured after 120 mins by radiometric Hot-SpotSM Kinase assay relative to control.

Serine/threonine-protein kinase pim-2 (Homo sapiens), sequence (Q9P1W9 whole entry, looked up): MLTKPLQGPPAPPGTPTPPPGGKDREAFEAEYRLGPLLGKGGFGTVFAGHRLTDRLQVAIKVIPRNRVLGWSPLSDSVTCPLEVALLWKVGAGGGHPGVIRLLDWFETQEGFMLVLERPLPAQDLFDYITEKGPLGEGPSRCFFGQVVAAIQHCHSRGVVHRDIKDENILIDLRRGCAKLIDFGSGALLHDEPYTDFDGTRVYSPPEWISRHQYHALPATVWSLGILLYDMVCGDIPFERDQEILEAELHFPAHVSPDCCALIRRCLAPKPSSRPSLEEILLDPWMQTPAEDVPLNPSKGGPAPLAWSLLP
Non-receptor tyrosine-protein kinase TYK2 (Homo sapiens), sequence (P29597 whole entry): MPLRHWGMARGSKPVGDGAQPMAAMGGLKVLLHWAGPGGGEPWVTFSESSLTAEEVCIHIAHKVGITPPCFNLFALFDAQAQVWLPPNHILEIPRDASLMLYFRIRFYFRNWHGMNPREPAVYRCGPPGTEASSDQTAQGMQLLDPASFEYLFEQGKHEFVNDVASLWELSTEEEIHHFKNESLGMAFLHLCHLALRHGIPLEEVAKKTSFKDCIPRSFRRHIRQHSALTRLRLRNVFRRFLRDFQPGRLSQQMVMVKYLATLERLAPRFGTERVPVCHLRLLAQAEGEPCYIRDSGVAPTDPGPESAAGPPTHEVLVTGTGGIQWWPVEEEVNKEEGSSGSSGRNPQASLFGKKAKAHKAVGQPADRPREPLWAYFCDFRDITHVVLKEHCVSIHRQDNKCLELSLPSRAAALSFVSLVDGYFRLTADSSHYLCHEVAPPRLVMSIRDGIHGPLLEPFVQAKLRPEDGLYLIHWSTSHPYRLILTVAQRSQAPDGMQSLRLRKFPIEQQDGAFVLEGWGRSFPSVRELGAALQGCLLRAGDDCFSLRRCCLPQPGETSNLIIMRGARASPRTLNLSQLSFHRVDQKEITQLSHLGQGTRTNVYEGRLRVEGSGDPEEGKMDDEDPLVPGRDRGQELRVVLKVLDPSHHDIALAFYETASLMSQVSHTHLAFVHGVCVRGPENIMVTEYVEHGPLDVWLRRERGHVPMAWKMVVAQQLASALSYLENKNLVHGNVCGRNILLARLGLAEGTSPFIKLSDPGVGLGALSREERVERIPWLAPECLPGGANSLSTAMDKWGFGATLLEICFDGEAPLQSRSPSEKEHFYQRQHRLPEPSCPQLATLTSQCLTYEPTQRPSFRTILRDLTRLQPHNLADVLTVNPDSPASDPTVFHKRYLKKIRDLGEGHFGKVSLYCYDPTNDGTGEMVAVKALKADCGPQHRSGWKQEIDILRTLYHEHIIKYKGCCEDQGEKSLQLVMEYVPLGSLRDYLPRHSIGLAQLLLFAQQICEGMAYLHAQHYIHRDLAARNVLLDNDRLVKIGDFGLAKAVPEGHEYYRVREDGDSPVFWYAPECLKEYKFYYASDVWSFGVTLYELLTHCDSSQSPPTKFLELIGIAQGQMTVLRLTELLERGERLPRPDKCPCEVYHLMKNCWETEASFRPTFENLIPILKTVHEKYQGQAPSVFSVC
Inactive tyrosine-protein kinase PEAK1 (Homo sapiens), sequence (Q9H792 whole entry): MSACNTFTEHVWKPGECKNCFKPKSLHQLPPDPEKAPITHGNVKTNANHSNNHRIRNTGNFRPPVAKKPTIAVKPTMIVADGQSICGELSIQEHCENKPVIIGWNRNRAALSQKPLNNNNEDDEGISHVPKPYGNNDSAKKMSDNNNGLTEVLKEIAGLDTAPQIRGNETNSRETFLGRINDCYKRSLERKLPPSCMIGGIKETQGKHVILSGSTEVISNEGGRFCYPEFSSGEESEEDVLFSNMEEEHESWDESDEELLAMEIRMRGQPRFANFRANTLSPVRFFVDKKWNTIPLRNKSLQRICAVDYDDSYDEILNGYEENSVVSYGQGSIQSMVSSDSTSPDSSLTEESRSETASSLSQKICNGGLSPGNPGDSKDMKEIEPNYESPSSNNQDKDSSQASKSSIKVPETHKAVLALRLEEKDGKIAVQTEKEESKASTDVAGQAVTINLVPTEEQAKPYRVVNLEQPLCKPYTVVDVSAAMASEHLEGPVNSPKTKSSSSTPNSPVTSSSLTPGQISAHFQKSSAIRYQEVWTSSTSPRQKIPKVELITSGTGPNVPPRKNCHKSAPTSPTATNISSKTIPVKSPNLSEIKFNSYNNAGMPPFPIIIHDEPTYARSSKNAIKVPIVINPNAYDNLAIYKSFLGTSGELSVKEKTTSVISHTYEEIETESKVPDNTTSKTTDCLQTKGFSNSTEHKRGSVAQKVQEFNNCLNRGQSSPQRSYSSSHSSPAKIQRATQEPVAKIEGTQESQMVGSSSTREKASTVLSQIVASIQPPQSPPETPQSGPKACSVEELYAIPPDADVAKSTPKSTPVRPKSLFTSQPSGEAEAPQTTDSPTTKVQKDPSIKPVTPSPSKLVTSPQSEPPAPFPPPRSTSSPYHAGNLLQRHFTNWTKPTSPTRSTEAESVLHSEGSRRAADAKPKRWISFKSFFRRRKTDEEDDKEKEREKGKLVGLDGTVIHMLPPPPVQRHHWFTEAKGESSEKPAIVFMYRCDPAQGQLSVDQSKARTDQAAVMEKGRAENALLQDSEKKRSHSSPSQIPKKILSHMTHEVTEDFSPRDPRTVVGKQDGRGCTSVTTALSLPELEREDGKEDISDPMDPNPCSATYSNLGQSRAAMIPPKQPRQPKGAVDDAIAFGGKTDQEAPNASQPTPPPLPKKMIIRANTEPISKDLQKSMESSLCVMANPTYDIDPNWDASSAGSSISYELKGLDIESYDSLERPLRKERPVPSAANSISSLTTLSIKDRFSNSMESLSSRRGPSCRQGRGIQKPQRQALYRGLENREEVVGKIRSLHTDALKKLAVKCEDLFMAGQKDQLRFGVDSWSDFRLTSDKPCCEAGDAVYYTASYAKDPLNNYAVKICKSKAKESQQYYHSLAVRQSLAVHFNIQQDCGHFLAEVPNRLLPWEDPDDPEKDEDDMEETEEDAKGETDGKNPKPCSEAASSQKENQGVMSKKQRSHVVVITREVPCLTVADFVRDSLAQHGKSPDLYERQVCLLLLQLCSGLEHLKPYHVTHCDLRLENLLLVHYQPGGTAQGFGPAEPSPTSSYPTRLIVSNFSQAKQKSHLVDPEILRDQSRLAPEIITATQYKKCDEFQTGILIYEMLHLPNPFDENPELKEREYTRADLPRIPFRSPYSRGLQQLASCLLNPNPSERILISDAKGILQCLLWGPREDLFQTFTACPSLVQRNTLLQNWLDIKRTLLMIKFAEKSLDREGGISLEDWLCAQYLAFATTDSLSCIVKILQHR
Protein-tyrosine kinase 6 (Homo sapiens), sequence (Q13882 whole entry, looked up): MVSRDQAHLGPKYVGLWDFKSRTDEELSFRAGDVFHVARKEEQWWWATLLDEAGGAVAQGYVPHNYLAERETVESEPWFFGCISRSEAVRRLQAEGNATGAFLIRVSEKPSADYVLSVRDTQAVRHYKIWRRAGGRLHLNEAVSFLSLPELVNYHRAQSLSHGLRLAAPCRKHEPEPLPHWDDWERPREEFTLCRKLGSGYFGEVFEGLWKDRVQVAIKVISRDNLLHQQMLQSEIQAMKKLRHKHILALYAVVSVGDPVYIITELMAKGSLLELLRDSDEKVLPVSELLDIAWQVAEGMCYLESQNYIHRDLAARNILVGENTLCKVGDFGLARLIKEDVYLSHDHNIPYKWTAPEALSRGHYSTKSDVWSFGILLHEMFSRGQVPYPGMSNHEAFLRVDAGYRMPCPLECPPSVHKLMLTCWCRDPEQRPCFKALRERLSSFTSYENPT
Activin receptor type-1-like (Homo sapiens), sequence (P37023 whole entry): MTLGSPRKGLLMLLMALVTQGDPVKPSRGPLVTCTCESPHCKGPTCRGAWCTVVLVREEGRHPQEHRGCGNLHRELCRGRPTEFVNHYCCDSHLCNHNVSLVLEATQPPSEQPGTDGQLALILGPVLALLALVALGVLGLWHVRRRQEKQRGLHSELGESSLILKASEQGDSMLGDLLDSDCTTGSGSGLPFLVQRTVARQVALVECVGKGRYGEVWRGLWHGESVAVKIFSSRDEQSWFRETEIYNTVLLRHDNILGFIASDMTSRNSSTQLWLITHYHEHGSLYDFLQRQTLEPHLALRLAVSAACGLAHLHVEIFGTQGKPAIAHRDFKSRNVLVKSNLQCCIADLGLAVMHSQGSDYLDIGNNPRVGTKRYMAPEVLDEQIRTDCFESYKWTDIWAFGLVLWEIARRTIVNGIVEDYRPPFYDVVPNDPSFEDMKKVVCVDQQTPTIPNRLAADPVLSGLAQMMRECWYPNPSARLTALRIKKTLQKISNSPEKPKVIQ

On to `C[C@H](Nc1ncnc2nc[nH]c12)c1cc2cccc(Cl)c2c(=O)n1-c1ccccc1`, for which the Activity in assay [1] turned out to be 78.1%; in assay [2], 89.4%; in [3] it was 98.1%; in assay [4] it was 98.3%; in [5], 96.3%; in [6], 96.3%. Also, the Activity in assay [7] came to 116%; in [8], 96.4%; in assay [9], 94.8%; in assay [10] it was 107%.

For the compound `CC[C@H](Nc1ncnc2[nH]cnc12)c1nc2cccc(F)c2c(=O)n1-c1ccccc1`, the Activity was 87.1% in assay [1]; 93.3% in [2]; 100% in [3]; 97.6% in assay [4]; 96.6% in assay [5]; 97% in assay [6]. Also, the Activity in assay [7] stood at 103%; in assay [8], 96.6%; in assay [9], 85.5%; in assay [10] it was 110%.

For `CC(C)Oc1ccc(-c2nn([C@@H](C)c3oc4ccc(F)cc4c(=O)c3-c3cccc(F)c3)c3ncnc(N)c23)cc1F` [UMBRALISIB], the Activity turned out to be 85.4% in assay [1]; 95% in assay [2]; 101% in [3]; 97.9% in assay [4]; 102% in assay [5]; 97.2% in assay [6]. Also, the Activity was 114% in assay [7], 104% in assay [8], 98.4% in [9] and 127% in assay [10].
